This note sets out measurements from paper PMC8316002, “Inhibition of Escherichia coli Lipoprotein Diacylglyceryl Transferase Is Insensitive to Resistance Caused by Deletion of Braun’s Lipoprotein” (Journal of Bacteriology, 2021).

Each structure is given as a SMILES string. Where a SMILES comes first, the peptide text is derived from it. Bridges are numbered along the chain shown (N, C = ends). [ ]: non-standard residue; d: D form. Bip = N[C@@H](Cc1ccc(-c2ccccc2)cc1)C(=O)O; NMeF = CN[C@@H](Cc1ccccc1)C(=O)O

One data set is described as follows: Solubility (remark). Format: physicochemical. As to conditions: prevented agar plate-based resistance selections.
Another data set deals with CFT073 imp4213 lpp^Ara. Put plainly: Western blot of Lpp forms, arabinose-inducible Lpp. Format: cell-based, E. coli. To be noted: Lpp induced with arabinose prior to treatment. The text has this: Lpp expression was induced prior to treatment with G2824 or globomycin to minimize the level of preexisting triacylated Lpp.
Bacterial cell samples normalized for equivalent OD600 and resuspended in BugBuster lysis buffer (Fischer Scientific) with the addition of sample buffer (LI-COR), and proteins were separated by SDS-PAGE using 16% Tricine protein gels or NuPAGE 4% to 20% bis-Tris gels (Thermo Fisher Scientific), transferred to nitrocellulose membranes using the iBlot 2 dry blotting system (Invitrogen), and blocked using LI-COR blocking buffer for 30 min. Unless stated otherwise, loading buffer with reducing agents was added and samples were not boiled prior to SDS-PAGE. For the sucrose gradient centrifugation, samples were boiled prior to running the SDS-PAGE. Primary antibodies were used at a final concentration of 1 μg/ml with some exceptions: rabbit anti-Lpp polyclonal antibody (0.1 μg/ml), murine anti-Pal 6D7 antibody (0.5 μg/ml), rabbit anti-GroEL antibody (1:10,000 final dilution), and rabbit anti-OmpA antibody (1:50,000 final dilution). The secondary antibodies were all obtained from LI-COR and used as per manufacturer’s instructions. Images were collected using the Odyssey CLx imaging system (LI-COR) and analyzed by Image Studio Lite.
A general note: Immunoblotting shows a protein as a band on a membrane.

A further data set has as its system BW25113 cells, lgt gRNA. Put plainly: CRISPRi knockdown sensitization, lgt gRNA. To be noted: 2 μM G2824, 0.05 μM globomycin or 0.016 μM ciprofloxacin; OD600 relative to untreated, versus scr or folA gRNA. Format: cell-based, E. coli. From the text:
(§1) The two-plasmid bacterial CRISPRi system pdCas9-bacteria_GNE and PGNRNA-bacteria_GNE are based on the AddGene plasmids 44249 and 44251 ([73]), respectively. The plasmid was synthesized in smaller DNA fragments (500 bp to 3 kb) (IDT gBlocks) and assembled by Gibson assembly (NEB) according to the manufacturer’s protocols. Plasmids were confirmed by sequencing (ELIM Bio). gRNAs were designed to target the 5′ end of the gene on the nontemplate strand using Benchling CRISPR software ([74]). gRNAs were cloned into PGNRNA-bacteria using Gibson assembly (NEB) according to the manufacturer’s protocols and sequence confirmed (ELIM Bio).
(§2) Bacterial cultures were grown overnight on LB agar supplemented with carbenicillin (50 μg/ml) and chloramphenicol (12.5 μg/ml) to maintain both plasmids, pdCas9-bacteria and PGNRNA-bacteria with each gRNA as appropriate. Cells were scraped from the plate into fresh medium. The OD600 was measured, and the culture was subsequently diluted to an OD600 0.001 in the presence or absence of G2824, globomycin, or ciprofloxacin. Two hundred microliters was transferred to a 96-well plate (Corning) and monitored for growth by measuring the OD600 (EnVision multimode plate reader; PerkinElmer). All treatments were performed in triplicates. The specificity of CRISPRi downregulation was measured using reverse transcriptase quantitative PCR (RT-qPCR).

For the next data set, the system named is BW25113 cells, lspA gRNA. Briefly: CRISPRi knockdown sensitization, lspA gRNA. To be noted: 2 μM G2824, 0.05 μM globomycin or 0.016 μM ciprofloxacin; OD600 relative to untreated, versus scr or folA gRNA. Format: cell-based, E. coli.
Source text: as §1, §2

The test system of the next data set is MG1655 imp4213. Briefly: Sucrose gradient centrifugation, IM and OM separation. In kind it is cell-based, E. coli. As to conditions: 1× MIC, 60 min. Here is the method: Bacterial inner and outer membranes were separated by isopycnic sucrose gradient centrifugation as described previously ([75]) and by the Hancock Laboratory (http://cmdr.ubc.ca/bobh/method/outer-membrane-preparation-one-step-sucrose-gradient-procedure/), with some modifications. Briefly, bacteria were grown in Luria broth at 37°C to mid-exponential phase (OD600 of 0.8 to 0.9) and then treated with 1× MIC of designated inhibitors for 1 h. Cells representing equivalents of an OD600 of 10 were harvested by centrifugation at 4,000 × g for 15 min, washed once, and resuspended in cold 10 mM Tris, pH 8.0, containing 20% (wt/vol) sucrose, cOmplete EDTA-free protease inhibitor cocktail (Roche), and 1,000 U/ml nuclease (Benzonase nuclease; EMD Millipore). The cell suspension was disrupted by two passages through an LV1 Microfluidizer (Microfluidics). Unbroken cells were removed by centrifugation at 4,000 × g, and membranes were collected by ultracentrifugation at 100,000 × g for 1 h and washed once with cold 10 mM Tris, pH 8.0. The final membrane preparation was resuspended in 10 mM Tris, pH 8.0, containing 10% sucrose, cOmplete EDTA-free protease inhibitor cocktail (Roche), and 1,000 U/ml nuclease and then applied to the top of the sucrose gradients (73%, 60%, and 20%). The loaded gradients were spun at 39,000 rpm for 22 h at 4°C in a Beckman SW 41 Ti rotor. Fractions were collected from the top and analyzed by SDS-PAGE and immunoblotting with appropriate antibodies.

In a further data set the test system is WT CFT073. Put plainly: MIC assay, WT CFT073 (Table 1). Format: cell-based, E. coli. To be noted: Escherichia coli, average of two independent experiments, each in duplicates, CLSI. Here is the method:
Unless stated otherwise, E. coli cells were grown in Luria-Bertani (LB) medium (0.5% yeast extract, 1% tryptone, 0.5% NaCl) at 37°C. Where indicated, kanamycin (Kan) was added to culture media at a 50-μg/ml final concentration. MIC assays were performed based on Clinical and Laboratory Standards Institute (CLSI) guidelines. For in vitro growth curves, overnight cultures of WT CFT073, CFT073 Δlgt, and CFT073 Δlgt complemented with lgt from E. coli (lgt^Ec) or P. aeruginosa (lgt^Pa) were grown to mid-exponential phase (optical density at 600 nm [OD600] of 0.6) and then diluted to an OD600 of 0.1 to initiate growth curves. At various times, culture aliquots were diluted and plated in dilutions on LB+Kan agar, and CFU were enumerated in duplicates. Growth of MG1655 inducible deletion strains was measured by culturing in the presence of 2-fold dilutions of arabinose (starting arabinose concentrations for CFT073 and MG1655 inducible deletion strains were 4% and 0.8%, respectively). While […] was sufficient for WT growth of MG1655 Δlgt, 4% arabinose was used for CFT073 Δlgt based on comparing its growth to that of WT CFT073 as measured by CFU. OD600 growth measurements were performed using an EnVision 2101 multilabel reader plate reader (PerkinElmer) linked with Echo liquid handler (Labcyte). For time-kill experiments, bacteria were harvested in mid-exponential phase and treated with 12.5 μM G2824, 3.2 μM globomycin, and 1.6 μM vancomycin. CFU were enumerated at various times posttreatment. Bacterial culture medium containing 2% arabinose was used to induce lpp or lppΔK expression from pBad24 plasmids. Bacterial viability at different time points during the treatment was measured by enumerating CFU. Serum killing assays were carried out as previously described ([17]).

Take `CN1C(=O)[C@H](Cc2ccc(-c3ccccc3)cc2)NC(=O)CNC(=O)[C@H](CC(=O)O)NC(=O)[C@@H](Cc2ccccc2)NC(=O)CSC[C@@H](C(=O)NCC(=O)N[C@@H](CCCCN)C(=O)N[C@@H](CCCCN)C(N)=O)NC(=O)[C@H](CCCNC(=N)N)NC(=O)[C@H](CO)NC(=O)[C@H](Cc2ccc(-c3ccccc3)cc2)NC(=O)[C@@H]1Cc1ccccc1` [G2824] ({CH2CO}-[dF]DG[Bip][NMeF][Bip]SRCGKK-NH2; thioether N-9): the solubility result in “Solubility (remark)” is “solubility issues”.

Turning to `CCCCCC[C@H]1OC(=O)CNC(=O)[C@H]([C@H](C)O)NC(=O)[C@H](CO)NC(=O)[C@H]([C@H](C)CC)NC(=O)[C@H](CC(C)C)N(C)C(=O)[C@@H]1C` [Globomycin], the “level of mature Lpp” value with CFT073 imp4213 lpp^Ara is “decreased mature Lpp”. The “sensitization by decreased lgt expression” value in the data set on BW25113 cells, lgt gRNA was “not globomycin”. The “sensitization by decreased lspA expression” value in the data set on BW25113 cells, lspA gRNA was “enhanced growth inhibition”. Besides, in the data set on MG1655 imp4213, the “IM accumulation of OM lipoproteins and OMPs” value was “IM accumulation of OM lipoproteins (Pal and BamB) and OMPs (BamA and OmpA)”; the “IM accumulation of PGN-linked Lpp” value is “significant IM accumulation of PGN-linked Lpp, including DGPLP”; the “localization of OmpA” value is “mislocalization of the β-barrel protein, OmpA”. In the data set on MG1655 imp4213 (versus untreated), the “IM total protein and OM density” value was “increases in total protein levels in the IM fraction and a decrease in OM density”.

What is called MIC is the smallest concentration in the dilution series that meets the test's criterion for growth inhibition. For `CN[C@H](CC(C)C)C(=O)N[C@H]1C(=O)N[C@@H](CC(N)=O)C(=O)N[C@H]2C(=O)N[C@H]3C(=O)N[C@H](C(=O)N[C@H](C(=O)O)c4cc(O)cc(O)c4-c4cc3ccc4O)[C@H](O)c3ccc(c(Cl)c3)Oc3cc2cc(c3O[C@@H]2O[C@H](CO)[C@@H](O)[C@H](O)[C@H]2O[C@H]2C[C@](C)(N)[C@H](O)[C@H](C)O2)Oc2ccc(cc2Cl)[C@H]1O` [Vancomycin], the MIC with WT CFT073 was above 100 µM.
